Measured values reported in ChEMBL document CHEMBL3853354, “Structure-activity relationships of proline modifications around the tetracyclic-indole class of NS5A inhibitors” (Bioorg Med Chem Lett, 2016).

Columns and labels:
[1] = tested on: Hepatitis C virus subtype 1a; test: Inhibition of NS5A in HCV genotype 1a assessed as reduction in replicon RNA level after 3 days by cell based RT-PCR method
[2] = tested on: Nonstructural protein 5A (Hepatitis C virus), Q5L478 [UNDEFINED MUTATION]; test: Inhibition of NS5A L31V mutant in HCV genotype 1a assessed as reduction in replicon RNA level after 3 days by cell based RT-PCR method; conditions: Hepatitis C virus subtype 1a
[3] = tested on: T1, Nonstructural protein 5A (Hepatitis C virus), Q5L478 [Y93H]; test: Inhibition of NS5A Y93H mutant in HCV genotype 1a assessed as reduction in replicon RNA level after 3 days by cell based RT-PCR method; conditions: Hepatitis C virus subtype 1a
T1 sequence (whole entry): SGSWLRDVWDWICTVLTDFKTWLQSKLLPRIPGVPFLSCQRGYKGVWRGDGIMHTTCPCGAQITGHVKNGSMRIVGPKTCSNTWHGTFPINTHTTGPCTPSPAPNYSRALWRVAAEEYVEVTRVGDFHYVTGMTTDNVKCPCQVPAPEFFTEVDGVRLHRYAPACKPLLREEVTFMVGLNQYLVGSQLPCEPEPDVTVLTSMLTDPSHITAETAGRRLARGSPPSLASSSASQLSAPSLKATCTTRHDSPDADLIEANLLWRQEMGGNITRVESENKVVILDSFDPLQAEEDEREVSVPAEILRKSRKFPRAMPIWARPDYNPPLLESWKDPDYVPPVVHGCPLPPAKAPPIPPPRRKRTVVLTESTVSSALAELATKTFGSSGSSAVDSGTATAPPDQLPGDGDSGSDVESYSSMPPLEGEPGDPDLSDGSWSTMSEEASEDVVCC

[4] = tested on: Hepatitis C virus subtype 2b; test: Inhibition of NS5A in HCV genotype 2b assessed as reduction in replicon RNA level after 3 days by cell based RT-PCR method
[5] = tested on: Hepatitis C virus subtype 1a; test: Selectivity ratio of EC90 for NS5A L31V mutant in HCV genotype 1a to EC90 for NS5A in HCV genotype 1a
[6] = tested on: Hepatitis C virus subtype 1a; test: Selectivity ratio of EC90 for NS5A Y93H mutant in HCV genotype 1a to EC90 for NS5A in HCV genotype 1a
[7] = Selectivity ratio of EC90 for NS5A in HCV genotype 2b to EC90 for NS5A in HCV genotype 1a
[8] = Half life in rat at 2 mg/kg, iv; assay type: ADME, organism-based; conditions: in vivo
[9] = Clearance in rat at 2 mg/kg, iv; assay type: ADME, organism-based; conditions: in vivo
[10] = AUC in rat at 10 mg/kg, po; assay type: ADME, organism-based; conditions: in vivo
[11] = Cmax in rat at 10 mg/kg, po; assay type: ADME, organism-based; design: dose 10 mg/kg, route oral; conditions: in vivo
[12] = Oral bioavailability in rat at 10 mg/kg; assay type: ADME, organism-based; conditions: in vivo
[13] = tested on: Hepatitis C virus subtype 3a; test: Inhibition of NS5A in HCV genotype 3a assessed as reduction in replicon RNA level after 3 days by cell based RT-PCR method

Structure (SMILES)	EC90 [1]	EC90 [2]	EC90 [3]	EC90 [4]	Selectivity ratio [5]	Selectivity ratio [6]	Selectivity ratio [7]	half-life [8]	clearance [9]	AUC [10]	Cmax [11]	bioavailability [12]	EC90 [13]
COC(=O)N[C@H](C(=O)N1CCC[C@H]1c1ncc(-c2cc(F)c3c(c2)OC(c2ccc4c(c2)OCCC4)n2c-3cc3cc(-c4cnc([C@@H]5C[C@H]6C[C@H]6N5C(=O)[C@@H](NC(=O)OC)C(C)C)[nH]4)ccc32)[nH]1)C(C)C (some centres not stated)	0.004 nM	0.007 nM	0.12 nM	0.38 nM	2	30	95	276 min	11.4 mL/min/kg	0.63 µM·h	73 nM	4%	–
COC(=O)N[C@H](C(=O)N1CCC[C@H]1c1ncc(-c2ccc3c(c2)OC(c2cccc(OC)c2)n2c-3cc3cc(-c4cnc([C@@H]5C[C@H]6C[C@H]6N5C(=O)[C@@H](NC(=O)OC)C(C)C)[nH]4)ccc32)[nH]1)C(C)C (some centres not stated)	0.013 nM	0.13 nM	6.45 nM	4.66 nM	10	500	360	282 min	6 mL/min/kg	3.64 µM·h	630 nM	13%	–
COC(=O)N[C@H](C(=O)N1CCC[C@H]1c1ncc(-c2cc(F)c3c(c2)OC(c2cccc(OC)c2)n2c-3cc3cc(-c4cnc([C@@H]5CCCN5C(=O)[C@@H](NC(=O)OC)C(C)C)[nH]4)ccc32)[nH]1)C(C)C (some centres not stated)	0.01 nM	–	–	5.72 nM	20	230	570	–	–	–	–	–	0.07 nM
COC(=O)N[C@H](C(=O)N1CCC[C@H]1c1ncc(-c2ccc3c(c2)cc2n3C(c3cccc(OC)c3)Oc3cc(-c4cnc([C@@H]5C[C@@H](F)CN5C(=O)[C@@H](NC(=O)OC)C(C)C)[nH]4)ccc3-2)[nH]1)C(C)C (some centres not stated)	< 0.02 nM	0.81 nM	19.8 nM	60.8 nM	> 41	> 990	> 3040	–	–	–	–	–	–
